In paper PMC12136037, “Type II kinase inhibitors that target Parkinson’s disease–associated LRRK2” (Science Advances, 2025) one finds dTm data, which are given here for 7 molecules.

What all share (assay): DSF 100 kinase selectivity screen;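 further: compound tested at 20 µM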
Holding throughout (format): binding

Test [1] addresses T1, ~100 representative kinases (Homo sapiens, UniProt O15075).
T1 construct: Recombinant protein kinase domains with a concentration of 2 μM
Particulars: Protein DCAMKL1; average of three replicates. The procedure: (§1) Recombinant protein kinase domains with a concentration of 2 μM were mixed with a 20 μM compound solution in dimethyl sulfoxide (DMSO), 20 mM Hepes (pH 7.5), and 500 mM NaCl. SYPRO Orange (5000×, Invitrogen) was added as a fluorescence probe (1μl/ml). Subsequently, temperature-dependent protein unfolding profiles were measured using the QuantStudio 5 realtime PCR machine (Thermo Fisher Scientific, Waltham, MA, USA). […] The temperature was raised with a step rate of 3°C/min. […] Differences in melting temperature are given as ΔTm values in degrees Celsius. […]

For test [2], the target named is T2, ~100 representative kinases (Homo sapiens, UniProt O43293).
T2 construct: Recombinant protein kinase domains with a concentration of 2 μM
Particulars: Protein DAPK3; average of three replicates. The procedure:
as §1

For test [3], the target named is T3, ~100 representative kinases (Homo sapiens, UniProt O94768).
T3 construct: Recombinant protein kinase domains with a concentration of 2 μM
T3 sequence (O94768 1-372): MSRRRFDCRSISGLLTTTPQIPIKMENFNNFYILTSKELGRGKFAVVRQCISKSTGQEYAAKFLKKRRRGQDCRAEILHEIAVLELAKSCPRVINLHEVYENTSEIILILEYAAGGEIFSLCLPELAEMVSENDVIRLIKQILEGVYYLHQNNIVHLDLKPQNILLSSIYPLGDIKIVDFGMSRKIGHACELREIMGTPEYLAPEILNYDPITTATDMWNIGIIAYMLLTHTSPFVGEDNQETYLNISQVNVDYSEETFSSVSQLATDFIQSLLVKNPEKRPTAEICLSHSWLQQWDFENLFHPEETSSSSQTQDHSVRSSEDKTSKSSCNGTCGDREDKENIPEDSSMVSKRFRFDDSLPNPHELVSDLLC
Particulars: Protein STK17B; DSF; average of three replicates. Here is the method: as §1

Test [4] concerns the target T4, ~100 representative kinases (Homo sapiens, UniProt O94804).
T4 construct: Recombinant protein kinase domains with a concentration of 2 μM
The settings on record: Protein STK10; DSF; average of three replicates. The procedure:
as §1

For test [5], the target named is T5, ~100 representative kinases (Homo sapiens, UniProt O96017).
T5 construct: Recombinant protein kinase domains with a concentration of 2 μM
The settings on record: Protein CHEK2; average of three replicates. Here is the method:
as §1

Test [6] addresses T6, ~100 representative kinases (Homo sapiens, UniProt P19784).
T6 construct: Recombinant protein kinase domains with a concentration of 2 μM
Particulars: Protein CK2A2; average of three replicates. Here is the method: as §1

Test [7] deals with T7, ~100 representative kinases (Homo sapiens, UniProt P45984).
T7 construct: Recombinant protein kinase domains with a concentration of 2 μM
Particulars: protein MAPK9; average of three replicates. The procedure: as §1

Test [8] has as its target T8, ~100 representative kinases (Homo sapiens, UniProt P53779).
T8 construct: Recombinant protein kinase domains with a concentration of 2 μM
Particulars: protein MAPK10; average of three replicates. Here is the method: as §1

For test [9], the target named is T9, ~100 representative kinases (Homo sapiens, UniProt Q13043).
T9 construct: Recombinant protein kinase domains with a concentration of 2 μM
T9 sequence (Q13043 1-487): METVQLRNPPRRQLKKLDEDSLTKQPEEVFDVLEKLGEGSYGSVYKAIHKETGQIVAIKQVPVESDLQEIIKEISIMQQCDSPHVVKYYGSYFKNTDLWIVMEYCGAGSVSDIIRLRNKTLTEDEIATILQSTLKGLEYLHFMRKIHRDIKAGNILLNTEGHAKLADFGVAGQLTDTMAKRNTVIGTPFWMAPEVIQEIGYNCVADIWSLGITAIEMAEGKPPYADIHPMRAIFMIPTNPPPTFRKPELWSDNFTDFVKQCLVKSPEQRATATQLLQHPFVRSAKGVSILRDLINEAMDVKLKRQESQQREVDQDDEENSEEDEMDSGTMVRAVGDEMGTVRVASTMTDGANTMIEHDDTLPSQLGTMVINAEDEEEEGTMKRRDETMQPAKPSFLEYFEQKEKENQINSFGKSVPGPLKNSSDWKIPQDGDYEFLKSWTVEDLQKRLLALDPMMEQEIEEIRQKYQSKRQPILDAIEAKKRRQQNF
Particulars: Protein STK4; DSF; average of three replicates. The procedure:
as §1

The target in test [10] is T10, ~100 representative kinases (Homo sapiens, UniProt Q13557).
T10 construct: Recombinant protein kinase domains with a concentration of 2 μM
The settings on record: Protein CAMK2D; average of three replicates. The procedure:
as §1

Test [11] has as its target T11, ~100 representative kinases (Homo sapiens, UniProt Q14680).
T11 construct: Recombinant protein kinase domains with a concentration of 2 μM
The settings on record: protein MELK; average of three replicates. Here is the method:
as §1

In test [12] the target is T12, ~100 representative kinases (Homo sapiens, UniProt Q15418).
T12 construct: Recombinant protein kinase domains with a concentration of 2 μM
The settings on record: Protein RPS6KA1; DSF; average of three replicates. The procedure:
as §1

Test [13] concerns the target T13, ~100 representative kinases (Homo sapiens, UniProt Q2M2I8).
T13 construct: Recombinant protein kinase domains with a concentration of 2 μM
The settings on record: Protein AAK1; average of three replicates. The procedure: as §1

Test [14] concerns the target T14, ~100 representative kinases (Homo sapiens, UniProt Q86V86).
T14 construct: Recombinant protein kinase domains with a concentration of 2 μM
The settings on record: protein PIM3; average of three replicates. The procedure:
as §1

The target of test [15] is T15, ~100 representative kinases (Homo sapiens, UniProt Q8TF76).
T15 construct: Recombinant protein kinase domains with a concentration of 2 μM
T15 sequence (Q8TF76 1-798): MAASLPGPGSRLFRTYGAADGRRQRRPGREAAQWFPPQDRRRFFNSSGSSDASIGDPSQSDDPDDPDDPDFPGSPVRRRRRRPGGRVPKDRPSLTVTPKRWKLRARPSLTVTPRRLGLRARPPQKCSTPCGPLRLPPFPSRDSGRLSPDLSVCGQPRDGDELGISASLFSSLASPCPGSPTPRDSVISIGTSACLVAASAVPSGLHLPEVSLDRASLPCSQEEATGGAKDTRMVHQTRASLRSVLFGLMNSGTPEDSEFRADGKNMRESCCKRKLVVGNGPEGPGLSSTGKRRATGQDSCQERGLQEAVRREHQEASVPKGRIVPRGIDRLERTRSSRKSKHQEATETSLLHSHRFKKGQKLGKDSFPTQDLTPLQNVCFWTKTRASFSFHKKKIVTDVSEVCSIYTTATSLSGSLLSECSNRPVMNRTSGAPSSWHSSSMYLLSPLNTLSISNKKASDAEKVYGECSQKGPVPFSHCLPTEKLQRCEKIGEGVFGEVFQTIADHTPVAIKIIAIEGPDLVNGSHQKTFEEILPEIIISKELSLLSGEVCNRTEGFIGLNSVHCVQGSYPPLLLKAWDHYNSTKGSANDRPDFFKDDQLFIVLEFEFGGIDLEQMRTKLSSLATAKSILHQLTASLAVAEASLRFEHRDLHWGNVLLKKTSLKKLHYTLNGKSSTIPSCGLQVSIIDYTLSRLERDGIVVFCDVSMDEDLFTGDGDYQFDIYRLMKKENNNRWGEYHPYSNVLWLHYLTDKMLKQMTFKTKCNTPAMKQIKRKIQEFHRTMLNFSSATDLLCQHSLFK
The settings on record: protein GSG2; average of three replicates. Here is the method:
as §1

T4 sequence (O94804 whole entry, the tested form may be a part): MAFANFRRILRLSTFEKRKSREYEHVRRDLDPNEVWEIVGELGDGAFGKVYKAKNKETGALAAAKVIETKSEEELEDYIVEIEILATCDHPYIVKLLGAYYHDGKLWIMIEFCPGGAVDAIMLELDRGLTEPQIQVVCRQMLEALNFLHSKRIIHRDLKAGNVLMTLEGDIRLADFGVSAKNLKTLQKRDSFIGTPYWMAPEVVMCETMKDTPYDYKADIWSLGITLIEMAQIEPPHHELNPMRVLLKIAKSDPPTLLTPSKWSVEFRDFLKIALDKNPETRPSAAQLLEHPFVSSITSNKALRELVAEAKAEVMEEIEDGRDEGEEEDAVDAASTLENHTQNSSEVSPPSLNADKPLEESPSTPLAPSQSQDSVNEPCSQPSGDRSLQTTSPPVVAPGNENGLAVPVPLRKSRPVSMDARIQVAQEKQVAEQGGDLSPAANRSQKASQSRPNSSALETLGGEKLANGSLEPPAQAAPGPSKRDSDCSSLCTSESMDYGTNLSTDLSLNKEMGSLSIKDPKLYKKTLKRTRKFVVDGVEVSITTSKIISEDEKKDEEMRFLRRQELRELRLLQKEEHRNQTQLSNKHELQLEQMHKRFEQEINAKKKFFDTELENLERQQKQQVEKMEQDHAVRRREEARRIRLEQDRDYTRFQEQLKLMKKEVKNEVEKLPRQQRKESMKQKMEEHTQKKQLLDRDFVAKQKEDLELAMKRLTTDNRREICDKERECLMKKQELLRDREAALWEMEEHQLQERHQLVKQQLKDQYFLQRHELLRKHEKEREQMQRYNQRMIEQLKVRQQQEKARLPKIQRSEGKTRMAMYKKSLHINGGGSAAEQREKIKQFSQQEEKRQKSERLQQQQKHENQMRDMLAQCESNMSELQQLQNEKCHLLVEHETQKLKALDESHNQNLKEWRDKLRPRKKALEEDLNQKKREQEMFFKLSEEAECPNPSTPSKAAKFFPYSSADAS
T2 sequence (O43293 whole entry, the tested form may be a part): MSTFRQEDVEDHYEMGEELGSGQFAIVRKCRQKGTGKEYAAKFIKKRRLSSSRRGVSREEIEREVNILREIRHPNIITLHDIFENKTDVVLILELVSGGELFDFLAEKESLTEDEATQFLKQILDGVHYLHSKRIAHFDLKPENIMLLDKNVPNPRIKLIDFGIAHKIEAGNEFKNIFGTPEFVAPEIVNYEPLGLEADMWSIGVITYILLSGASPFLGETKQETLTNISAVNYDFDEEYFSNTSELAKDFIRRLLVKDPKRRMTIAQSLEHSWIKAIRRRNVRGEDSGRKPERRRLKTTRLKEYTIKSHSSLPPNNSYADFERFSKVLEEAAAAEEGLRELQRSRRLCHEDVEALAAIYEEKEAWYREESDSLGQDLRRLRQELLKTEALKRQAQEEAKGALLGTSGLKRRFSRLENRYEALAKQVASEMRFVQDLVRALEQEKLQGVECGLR
T8 sequence (P53779 whole entry, the tested form may be a part): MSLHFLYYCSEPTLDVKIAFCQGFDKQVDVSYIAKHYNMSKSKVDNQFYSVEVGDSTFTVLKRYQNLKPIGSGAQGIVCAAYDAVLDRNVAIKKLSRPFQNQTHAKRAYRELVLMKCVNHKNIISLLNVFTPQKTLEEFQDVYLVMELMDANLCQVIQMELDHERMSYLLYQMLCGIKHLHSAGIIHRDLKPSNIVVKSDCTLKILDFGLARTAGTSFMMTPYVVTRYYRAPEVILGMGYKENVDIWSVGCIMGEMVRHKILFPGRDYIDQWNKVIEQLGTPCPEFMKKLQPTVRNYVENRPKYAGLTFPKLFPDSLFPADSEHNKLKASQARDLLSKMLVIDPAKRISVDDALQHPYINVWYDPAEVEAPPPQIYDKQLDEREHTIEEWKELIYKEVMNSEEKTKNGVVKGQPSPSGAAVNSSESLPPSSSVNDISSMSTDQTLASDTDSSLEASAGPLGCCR
T1 sequence (O15075 whole entry, the tested form may be a part): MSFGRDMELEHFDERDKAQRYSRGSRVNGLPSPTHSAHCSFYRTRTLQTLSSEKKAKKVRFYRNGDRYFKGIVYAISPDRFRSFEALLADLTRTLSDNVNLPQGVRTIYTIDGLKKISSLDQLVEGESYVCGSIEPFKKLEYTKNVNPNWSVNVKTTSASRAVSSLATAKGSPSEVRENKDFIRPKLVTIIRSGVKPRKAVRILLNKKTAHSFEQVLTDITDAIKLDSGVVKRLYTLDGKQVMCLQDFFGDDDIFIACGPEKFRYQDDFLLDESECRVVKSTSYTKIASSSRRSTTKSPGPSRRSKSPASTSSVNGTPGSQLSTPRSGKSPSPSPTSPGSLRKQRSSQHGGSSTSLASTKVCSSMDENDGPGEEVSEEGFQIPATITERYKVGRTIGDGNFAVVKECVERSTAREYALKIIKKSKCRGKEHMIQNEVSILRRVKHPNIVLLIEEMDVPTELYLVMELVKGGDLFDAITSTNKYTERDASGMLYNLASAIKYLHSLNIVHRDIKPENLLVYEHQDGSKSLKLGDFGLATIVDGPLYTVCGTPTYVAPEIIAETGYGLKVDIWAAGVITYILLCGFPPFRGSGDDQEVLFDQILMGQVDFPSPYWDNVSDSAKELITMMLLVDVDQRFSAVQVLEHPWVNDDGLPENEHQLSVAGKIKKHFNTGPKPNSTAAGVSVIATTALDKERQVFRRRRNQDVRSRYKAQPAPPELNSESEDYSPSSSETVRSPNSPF
T12 sequence (Q15418 whole entry, the tested form may be a part): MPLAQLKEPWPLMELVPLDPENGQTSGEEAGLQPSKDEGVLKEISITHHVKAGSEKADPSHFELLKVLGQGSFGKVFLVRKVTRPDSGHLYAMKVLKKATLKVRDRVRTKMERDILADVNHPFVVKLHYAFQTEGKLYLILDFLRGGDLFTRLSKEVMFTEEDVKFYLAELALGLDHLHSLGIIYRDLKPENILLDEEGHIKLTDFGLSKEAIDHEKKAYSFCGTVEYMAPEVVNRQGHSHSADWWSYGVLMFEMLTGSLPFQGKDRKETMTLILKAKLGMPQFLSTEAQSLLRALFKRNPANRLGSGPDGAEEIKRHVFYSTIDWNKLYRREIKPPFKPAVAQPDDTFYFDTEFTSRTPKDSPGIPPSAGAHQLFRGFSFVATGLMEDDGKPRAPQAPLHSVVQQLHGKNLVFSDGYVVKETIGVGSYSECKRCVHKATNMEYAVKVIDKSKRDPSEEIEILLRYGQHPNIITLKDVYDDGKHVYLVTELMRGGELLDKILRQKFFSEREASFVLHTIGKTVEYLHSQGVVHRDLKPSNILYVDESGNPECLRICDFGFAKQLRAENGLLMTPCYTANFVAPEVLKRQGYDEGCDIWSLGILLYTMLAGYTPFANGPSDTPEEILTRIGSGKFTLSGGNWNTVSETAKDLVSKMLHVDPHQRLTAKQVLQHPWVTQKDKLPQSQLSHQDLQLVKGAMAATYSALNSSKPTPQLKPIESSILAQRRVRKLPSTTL
T5 sequence (O96017 whole entry, the tested form may be a part): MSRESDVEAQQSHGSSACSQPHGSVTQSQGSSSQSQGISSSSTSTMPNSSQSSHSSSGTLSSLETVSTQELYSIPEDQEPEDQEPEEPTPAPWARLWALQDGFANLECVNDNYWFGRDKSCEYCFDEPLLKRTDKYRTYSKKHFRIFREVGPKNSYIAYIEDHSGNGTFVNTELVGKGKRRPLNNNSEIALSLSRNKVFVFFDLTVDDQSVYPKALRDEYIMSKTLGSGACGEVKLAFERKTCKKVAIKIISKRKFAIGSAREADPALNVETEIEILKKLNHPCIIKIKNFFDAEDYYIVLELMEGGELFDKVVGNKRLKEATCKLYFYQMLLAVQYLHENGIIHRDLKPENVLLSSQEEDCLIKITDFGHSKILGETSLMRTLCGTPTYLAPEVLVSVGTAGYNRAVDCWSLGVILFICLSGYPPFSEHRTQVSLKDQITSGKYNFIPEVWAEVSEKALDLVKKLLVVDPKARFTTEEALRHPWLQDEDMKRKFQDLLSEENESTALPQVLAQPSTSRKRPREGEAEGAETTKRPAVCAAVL
T6 sequence (P19784 whole entry, the tested form may be a part): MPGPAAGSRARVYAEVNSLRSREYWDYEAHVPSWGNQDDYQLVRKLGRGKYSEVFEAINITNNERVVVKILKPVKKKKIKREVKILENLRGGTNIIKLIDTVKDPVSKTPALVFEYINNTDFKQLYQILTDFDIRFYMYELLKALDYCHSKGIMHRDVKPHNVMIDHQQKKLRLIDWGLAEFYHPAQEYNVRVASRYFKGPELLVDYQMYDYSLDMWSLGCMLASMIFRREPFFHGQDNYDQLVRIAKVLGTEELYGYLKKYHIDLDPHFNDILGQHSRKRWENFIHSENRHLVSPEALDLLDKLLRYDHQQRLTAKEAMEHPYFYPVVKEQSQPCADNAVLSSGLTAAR
T7 sequence (P45984 whole entry, the tested form may be a part): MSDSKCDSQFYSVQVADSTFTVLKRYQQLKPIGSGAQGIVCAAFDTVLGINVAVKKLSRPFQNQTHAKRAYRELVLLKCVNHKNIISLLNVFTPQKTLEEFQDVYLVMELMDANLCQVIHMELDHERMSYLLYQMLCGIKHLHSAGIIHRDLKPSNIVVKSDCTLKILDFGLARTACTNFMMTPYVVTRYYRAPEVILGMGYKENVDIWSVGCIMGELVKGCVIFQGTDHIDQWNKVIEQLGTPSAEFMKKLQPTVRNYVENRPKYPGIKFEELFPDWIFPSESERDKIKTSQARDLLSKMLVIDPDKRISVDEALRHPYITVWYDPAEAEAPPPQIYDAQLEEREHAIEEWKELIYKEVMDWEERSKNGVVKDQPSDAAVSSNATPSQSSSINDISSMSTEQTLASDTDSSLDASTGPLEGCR

Consider `Cc1cc(F)ccc1NC(=O)C1(C(=O)Nc2cccc(-c3c[nH]c4ncnc(N5CCOCC5)c34)c2)CC1` [Compound 24], for which the dTm in test [1] was -1.61 K; in test [2], 2.09 K; in [3], 2.37 K; in test [4] it was 8.23 K; in test [5], 2.66 K; in test [6], -0.63 K. Moreover, the dTm in [7] is 2.21 K; in test [8], -0.11 K; in [9] it was 4.47 K; in [10], -0.18 K; in test [11], 12.59 K; in test [12] it was 0.19 K. Also, the values for the dTm in test [13], in test [14] and in test [15] were 3.04 K, 0.00331 K and -2.81 K, respectively.
For the molecule `O=C(Nc1cccc(-c2c[nH]c3ncnc(N4CCOCC4)c23)c1)C1(C(=O)Nc2cc(Br)c(F)cc2F)CC1` [Compound 25], the dTm was determined as 3.61 K in test [1]; 3.02 K in test [2]; 0.00 K in [3]; 11.10 K in test [4]; 2.02 K in [5]; 1.70 K in test [6]. Moreover, the dTm in test [7] was 4.88 K; in test [8], 3.64 K; in test [9], 0.00 K; in test [10], 1.32 K; in test [11], 14.53 K; in [12], -1.87 K. Also, the dTm was -2.54 K in [13], -0.17 K in test [14] and -3.43 K in [15].
As to `O=C(Nc1cccc(-c2c[nH]c3ncnc(N4CCOCC4)c23)c1)C1(C(=O)Nc2ccc(F)c(Br)c2F)CC1` [Compound 26], the dTm in [1] is given as 3.55 K; in [2], 3.21 K; in [3] it was 0.00 K; in test [4] it was 12.57 K; in test [5] it was 2.81 K; in test [6] it was 4.72 K. Besides, the dTm in test [7] amounted to 4.90 K; in test [8], 5.85 K; in test [9], 0.00 K; in test [10], 1.25 K; in test [11], 13.99 K; in [12], 0.78 K. Further, the dTm in [13] was -0.08 K; in test [14], 0.88 K; in [15] it was -2.00 K.
On to `O=C(Nc1cc(F)cc(Br)c1)C1(C(=O)Nc2cccc(-c3c[nH]c4ncnc(N5CCOCC5)c34)c2)CC1` [Compound 27], for which the dTm in test [1] is 4.07 K; in test [2] it was 4.42 K; in [3], 0.00 K; in [4], 10.11 K; in test [5] it was 1.74 K; in [6] it was 2.42 K. The dTm in test [7] was 4.80 K; in [8] it was 5.93 K; in [9], 0.00 K; in test [10], 0.42 K; in [11], 12.52 K; in test [12], 0.00 K. Also, the results for the dTm in test [13], in test [14] and in test [15] were -2.65 K, -0.05 K and -3.53 K, respectively.
Regarding `CC(C)(C)c1cc(NC(=O)Nc2cccc(-c3c[nH]c4ncnc(N5CCOCC5)c34)c2)n(-c2ccc3ncccc3c2)n1` [Compound 28], the dTm is reported as 3.53 K in test [1]; 14.79 K in test [2]; 9.72 K in test [3]; 20.14 K in test [4]; 10.72 K in test [5]; -0.38 K in test [6]. Moreover, the dTm is on record as 6.00 K in [7]; 4.27 K in test [8]; 8.26 K in test [9]; 0.51 K in test [10]; 2.71 K in [11]; 0.32 K in test [12]. In addition, the dTm is listed as 6.38 K in test [13], 4.96 K in test [14] and -2.39 K in [15].
For `Cc1ccc(-n2nc(C(C)(C)C)cc2NC(=O)Nc2cccc(-c3c[nH]c4ncnc(N5CCOCC5)c34)c2)cc1` [Compound 29], the dTm is 2.98 K in test [1]; 0.00 K in test [2]; 6.55 K in [3]; 20.37 K in test [4]; 12.51 K in test [5]; -2.10 K in test [6]. The dTm is reported as -1.39 K in [7]; 3.60 K in test [8]; 8.44 K in test [9]; -0.40 K in [10]; 6.41 K in test [11]; 0.38 K in [12]. Besides, the dTm in [13] was 5.32 K; in test [14] it was 0.33 K; in test [15] it was -2.91 K.
For the molecule `Cc1ccc(-n2nc(C(C)(C)C)cc2NC(=O)Nc2cccc(-c3c[nH]c4nc(Cl)nc(N5CCOCC5)c34)c2)cc1` [Compound 30], the dTm in [1] is given as 2.36 K; in [2] it was 6.34 K; in [3], -0.13 K; in test [4], 13.38 K; in test [5], 4.41 K; in test [6], -4.20 K. Besides, the dTm in [7] is given as 3.39 K; in [8], -0.06 K; in [9], 4.23 K; in test [10], -0.81 K; in test [11] it was 2.91 K; in test [12], -0.59 K. For the same molecule, the dTm in [13] was 0.53 K; in test [14], -1.11 K; in test [15], -1.55 K.
